Test results as given in patent US6372894B1, “Cycolalkylated B-glucoside” (Nihon Shokuhin Kako Co., Ltd., priority 1999, dated 2002).

Key:
[1] = test system: pNP-β-Glc activity of rose petal crude enzyme solution; assay: Inhibition test for rose crude enzyme; type: biochemical, Rosa gybrida CV. Wendy
Procedure: (§1) β-Glucosidase inhibition test was performed as follows. 10 mM p-nitrophenyl-p-glucoside (100 μl, abbreviated as pNP-β-Glc hereinafter), 1 M sodium acetate buffer (pH 5.0, 50 μl), pure-water, and 100 mM inhibitor (10 μl) were taken into a short test tube so that the mixture should have a total volume of 800 μl, and preincubated at 40° C. for 5 minutes. After the incubation, the obtained mixture was added with 50 μl of enzyme solution diluted to a suitable concentration, and allowed to react at 40° C. After 10 minutes, the enzyme was inactivated by adding 500 μl of 1 M sodium carbonate to the obtained reaction mixture, and the absorbance at 405 nm was measured and used for calculation of the amount of free p-nitrophenol. As the inhibitor, cyclopropylmethyl-β-glucoside (CPAM-β-Glc), cyclopentyl-β-glucoside (CPE-β-Glc), and cyclopentylmethyl-β-glucoside (CPEM-β-Glc) all prepared by the methods of Examples 1 and 2 were used. As the β-glucosidase, chromatographically purified preparations derived from Aspergillus niger, Trichoderma viride, and Almond (all from SIGMA) were used.
Only petals (about 70 g) were collected from about ten marketed roses (variety; Rosa gybrida CV. Wendy), added with acetone (500 ml) cooled to −20° C., and pulverized by a homogenizer while cooled with dry ice. The obtained pulverized mixture was filtered through a Buchner funnel put with a No. 2 filter paper sheet, and sufficiently washed with acetone at −20° C. The obtained filtrate was dried in a desiccator under reduced pressure (room temperature, 3 hours) to obtain 6 g of crude enzyme powder. This powder was added to 100 mM sodium phosphate buffer (pH 7.0, 120 ml) and stirred at 4° C. for 3 hours, and the insoluble matter was removed by centrifugation. The filtrate was subjected to ultrafiltration utilizing an ultrafiltration membrane PM-10 (Amicon) to finally afford 15 ml of crude enzyme solution.
In the same manner as in Example 3, the inhibition activity of the CPEM-β-Glc obtained in Example 2 for the pNP-β-Glc activity of the above crude enzyme solution was measured. […]

gypsophila cut flower = assay: Aromatic substance formation inhibition effect in cut flowers, organoleptic test (gypsophila); type: in vivo; conditions: 0.13% (w/v, 5 mM) aqueous solution, after one day, all of ten expert panelists, versus water
Procedure: (§2) A 0.13% (w/v, 5 mM) aqueous solution of the CPEM-β-Glc obtained in Example 2 was prepared. The obtained aqueous solution (300 ml) was introduced into an Erlenmeyer flask, and lily, chrysanthemum, and gypsophila were put into it one for each. On the other hand, as control, the flowers were similarly put into water without the CPEM-β-Glc. After 1, 2 and 4 days, organoleptic test was performed by ten expert panelists as for the aroma emitted from these cut flowers.

[2] = biological target: β-glucosidase derived from Trichoderma viride (Trichoderma viride, UniProt Q6UJY0); assay: β-Glucosidase inhibition test (pNP-β-Glc), T. viride enzyme; type: biochemical
Procedure: as §1

[3] = biological target: β-glucosidase derived from Aspergillus niger (Aspergillus niger, UniProt A2RAL4); assay: β-Glucosidase inhibition test (pNP-β-Glc), A. niger enzyme; type: biochemical
Procedure: as §1

[4] = test system: β-glucosidase derived from Almond; assay: β-Glucosidase inhibition test (pNP-β-Glc), almond enzyme; type: biochemical; conditions: inhibitor concentration of 1.25 mM
Procedure: as §1

lily cut flower = assay: Aromatic substance formation inhibition effect in cut flowers, organoleptic test (lily); type: in vivo; conditions: 0.13% (w/v, 5 mM) aqueous solution, after one day, all of ten expert panelists, versus water
Procedure: as §2

[5] = test system: lily, chrysanthemum, and gypsophila cut flowers; assay: Freshness of cut flowers in the aroma test; type: in vivo; conditions: 0.13% (w/v, 5 mM) aqueous solution
Procedure: as §2

chrysanthemum cut flower = assay: Aromatic substance formation inhibition effect in cut flowers, organoleptic test (chrysanthemum); type: in vivo; conditions: 0.13% (w/v, 5 mM) aqueous solution, after one day, all of ten expert panelists, versus water
Procedure: as §2

OCC1OC(OCC2CCCC2)C(O)C(O)C1O (stereo not drawn) [CPEM-β-Glc, cyclopentylmethyl-β-glucoside]
inhibition activity ([1]; at 3 mM): about 50% | inhibition activity ([1]; at 4 mM): about 70% | inhibition activity ([1]; at 5 mM): about 90% | aroma emitted from cut flowers, organoleptic test (gypsophila cut flower): distinctly reduced | inhibition of β-glucosidase, in words ([2]; T. viride enzyme, inhibitor concentration of 1.25 mM): no inhibition | IC50 ([2]; T. viride β-glucosidase, concentration varied from 0 to 5 mM, read-out: 50% inhibition concentration): 11.5 mM | inhibition of β-glucosidase, in words ([3]; A. niger enzyme, inhibitor concentration of 1.25 mM): relatively weak inhibition | IC50 ([3]; A. niger β-glucosidase, concentration varied from 0 to 5 mM, read-out: 50% inhibition concentration): 12.6 mM | inhibition of β-glucosidase, in words [4]: strongly inhibited | aroma emitted from cut flowers, organoleptic test (lily cut flower): distinctly reduced | freshness of the cut flowers, added versus not added [5]: No difference in freshness | aroma emitted from cut flowers, organoleptic test (chrysanthemum cut flower): distinctly reduced
